Patent publication US7785828B1 (priority 2003, dated 2010)

system: Fusarium graminearum; assay type: cell-based; set-up: key: + indicates a 1- to 5-fold improvement in activity compared to a reference defensin protein; ++ indicates a >5- to 10-fold improvement; +++ indicates a >10-fold improvement; “0” indicates no activity detected; conditions: not given

Substance | Activity (1): antifungal activity of the NP against Fusarium graminearium
QKLCERPSGTWSGVCMNSNACKNQCIRLEGARHGSCNYVFPAHKCICYFPC (Defensin like) [L2-53] | 0

same assay, conditions: Table 2B (Dm-AMP1 based libraries); improvement compared to reference defensin protein (Rs-AFP2 for Table 2B [sic])

Substance | Activity (1): antifungal activity of the NP against Fusarium graminearium
NLCERASKTWTGNCGNTKHCDTQCRSWEGAKHGACHVRNGKWKCFCYFNC (Defensin like) [L6-62] | + (+ indicates a 1- to 5-fold improvement in activity compared to a reference defensin protein)
NLCERASKTWTGNCGNTKHCDNQCKSWEGAKHGACHVRNGKWKCFCYFNC (Defensin like) [L10-64] | ++ (++ indicates a >5- to 10-fold improvement)
NLCERASKTWTGNCGNTKHCDTQCRSWEGAKHGACHVRNGKHKCFCYFNC (Defensin like) [L6-42] | + (+ indicates a 1- to 5-fold improvement in activity compared to a reference defensin protein)
NLCERASKTWTGNCGNTKHCDTQCKNWESAKHGACHVRSGKHKCFCYFNC (Defensin like) [L3-28] | ++ (++ indicates a >5- to 10-fold improvement)
NLCERASKTWTGNCGNTKHCDNQCKNWEGAKHGACHVRSGKHKCFCYFNC (Defensin like) [L6-23] | ++ (++ indicates a >5- to 10-fold improvement)
ELCERASKTWTGNCGNTKHCDNQCRSWESAAHGACHKRSGKWKCFCYFNC (Defensin like) [L3-87] | ++ (++ indicates a >5- to 10-fold improvement)
NLCERASKTWTGNCGNTKHCDTQCRSWEGAKHGACHKRNGKWKCFCYFNC (Defensin like) [L10-14] | ++ (++ indicates a >5- to 10-fold improvement)
NLCERASKTWTGNCGNTKHCDTQCRNWEGAKHGACHKRSGKWKCFCYFNC (Defensin like) [L6-33] | ++ (++ indicates a >5- to 10-fold improvement)
NLCERASLTWTGNCGNTKHCDTQCKNWEGAKHGACHVRNGKWKCFCYFNC (Defensin like) [L3-02] | ++ (++ indicates a >5- to 10-fold improvement)
NLCERASKTWTGNCGNTKHCDNQCRNWESAAHGACHKRSGKWKCFCYFNC (Defensin like) [L3-98] | ++ (++ indicates a >5- to 10-fold improvement)
NLCERASKTWTGNCGNTKHCDNQCRSWEGAKHGACHKRSGKWKCFCYFNC (Defensin like) [L10-77] | ++ (++ indicates a >5- to 10-fold improvement)
NLCERASKTWTGNCGNTKHCDTQCRNWEGARHGACHVRNGKWKCFCYFNC (Defensin like) [L10-71] | ++ (++ indicates a >5- to 10-fold improvement)
NLCERASKTWTGNCGNTKHCDTQCRSWEGAKHGACHVRSGKHKCFCYFNC (Defensin like) [L5-32] | + (+ indicates a 1- to 5-fold improvement in activity compared to a reference defensin protein)
NLCERASKTWTGNCGNTKHCDNQCRNWEGAAHGACHKRNGKWKCFCYFNC (Defensin like) [L6-45] | ++ (++ indicates a >5- to 10-fold improvement)
NLCERASKTWTGNCGNTKHCDNQCRNWEGAKHGACHVRNGKWKCFCYFNC (Defensin like) [L6-07] | +++ (+++ indicates a >10-fold improvement)
NLCERASKTWTGNCGNTKHCDTQCKSWEGAKHGACHVRNGKWKCFCYFNC (Defensin like) [L6-52] | + (+ indicates a 1- to 5-fold improvement in activity compared to a reference defensin protein)
NLCERASKTWSGDCGNTKHCDNQCRNWEGAKHGACHKRNGKWKCFCYFNC (Defensin like) [L10-62] | ++ (++ indicates a >5- to 10-fold improvement)
NLCERASKTWTGNCGNTKHCDNQCKNWEGAAHGACHKRSGKWKCFCYFNC (Defensin like) [L10-80] | ++ (++ indicates a >5- to 10-fold improvement)
NLCERASKTWSSNCGNTKHCDTQCKNWEGAKHGACHVRNGKWKCFCYFNC (Defensin like) [L10-60] | ++ (++ indicates a >5- to 10-fold improvement)
NLCERASKTWTGNCGNTKHCDNQCKNWEGAKHGACHVRNGKWKCFCYFNC (Defensin like) [L6-03] | +++ (+++ indicates a >10-fold improvement)
NLCEKASKTWTGNCGNTKHCDNQCKNWESAAHGACHKRNGKWKCFCYFNC (Defensin like) [L3-79] | ++ (++ indicates a >5- to 10-fold improvement)
NLCERASKTWTGNCGNTKHCDNQCKSWEGAKHGACHVRSGKHKCFCYFNC (Defensin like) [L5-37] | ++ (++ indicates a >5- to 10-fold improvement)
NLCERASKTWTGNCGNTKHCDTQCKSWEGAKHGACHVRSGKHKCFCYFNC (Defensin like) [L5-36] | + (+ indicates a 1- to 5-fold improvement in activity compared to a reference defensin protein)
NLCERASKTWTGNCGNTKHCDTQCKIWEGAKHGACHKRSGKWKCFCYFNC (Defensin like) [L3-77] | ++ (++ indicates a >5- to 10-fold improvement)
NLWEKASLTWTGNCGNTKHCDNQCKNWESAAHGACHKRSGKWMCFCYFNC (Defensin like) [L4-1] | + (+ indicates a 1- to 5-fold improvement in activity compared to a reference defensin protein)
NLCERASKTWAGNCGNTKHCDNQCRSWEGAKHGACHVRNGKWKCFCYFNC (Defensin like) [L10-33] | + (+ indicates a 1- to 5-fold improvement in activity compared to a reference defensin protein)
NLCERASKTWTGNCGNTKHCDNQCRNWEGAKHGACHKRNGKWKCFCYFNC (Defensin like) [L9-12] | +++ (+++ indicates a >10-fold improvement)
NLCERASKTWTGNCGNTKHCDNQCKNWEGAKHGACHVRNGKHKCFCYFNC (Defensin like) [L6-08] | +++ (+++ indicates a >10-fold improvement)
NLCERASKTWTGNCGNTKHCDNQCKSWEGAKHGACHKRSGKWKCFCYFNC (Defensin like) [L9-04] | ++ (++ indicates a >5- to 10-fold improvement)

same assay, conditions: Table 2C (mixed diversity library); improvement compared to reference defensin protein DmAMP

Substance | Activity (1): antifungal activity of the NP against Fusarium graminearium
DGVKLCERASKTWTGNCGNTKHCDNQCKSWEGAKHGACHVRNGKHKCFCYFNC (Defensin like) [L7-76] | ++ (++ indicates a >5- to 10-fold improvement)
DGVKLCERASKTWTGHCGNTKHCDKQCKNWEKAAHGACHVRNGKWKCFCYFNC (DGVKLCERASKTWSGHCGNTKHCDKQCKNWEKAAHGACHVRNGKWKCFCYFSC; Defensin like) [L7-93] | +++ (+++ indicates a >10-fold improvement)
DGVKLCEKASQTWTGNCGNTKHCDNQCKNWEKAKHGACHKRSGKWKCFCYFNC (Defensin like) [L7-42] | + (+ indicates a 1- to 5-fold improvement in activity compared to a reference defensin protein)
DGVKLCERASQTWTGHCGNTKHCDKQCKSWEKAKHGACHVRNGKWKCFCYFNC (Defensin like) [L7-15] | ++ (++ indicates a >5- to 10-fold improvement)
DGVKLCERPSQTWTGNCGNTKHCDKQCKSWEGAKHGACHKRNGKWKCFCYFNC (Defensin like) [L7-99] | + (+ indicates a 1- to 5-fold improvement in activity compared to a reference defensin protein)
DGVKLCEKPSQTWSHCGNTKHCDNQCKNWEGAAHGACHKRSGKWKCFCYFNC (Defensin like) [L7-231] | ++ (++ indicates a >5- to 10-fold improvement)
---NLCERASKTWSGHCGNTKHCDNQCRNWEGAKHGACHKRNGKWKCFCYFNC (Defensin like) [L7-11] | ++ (++ indicates a >5- to 10-fold improvement)
DGVKLCEKPSKTWSGHCGNTKHCDKQCKNWEKAKHGACHKRNGKWKCFCYFNC (Defensin like) [L7-113] | + (+ indicates a 1- to 5-fold improvement in activity compared to a reference defensin protein)
DGVKLCEKPSQTWTGNCGNTKHCDKQCRNWEKAKHGACHKRNGKWKCFCYFNC (Defensin like) [L7-46] | + (+ indicates a 1- to 5-fold improvement in activity compared to a reference defensin protein)
DGVKLCERASQTWSGHCGNTKHCDKQCKNWEKAAHGACHVRSGKWKCFCYFNC (Defensin like) [L7-14] | ++ (++ indicates a >5- to 10-fold improvement)
--QKLCERPSQTWTGHCGNTKHCDKQCKNWEGAKHGACHVRNGKWKCFCYFNC (Defensin like) [L7-89] | + (+ indicates a 1- to 5-fold improvement in activity compared to a reference defensin protein)
DGVKLCERPSQTWTGHCGNTKHCDKQCRNWEGAAHGACHKRSGKWKCFCYFNC (Defensin like) [L7-83] | ++ (++ indicates a >5- to 10-fold improvement)
DGVKLCERASKTWTGNCGNTKHCDKQCKNWEGAKHGACHKRNGKWKCFCYFNC (Defensin like) [L7-107] | + (+ indicates a 1- to 5-fold improvement in activity compared to a reference defensin protein)
DGVKLCERASKTWSGHCGNTKHCDNQCRSWEGAKHGACHVRSGKHKCFCYFNC (Defensin like) [L7-213] | ++ (++ indicates a >5- to 10-fold improvement)
--QKLCEKASKTWTGNCGNTKHCDKQCRSWEKAKHGACHVRNGKWKCFCYFNC (Defensin like) [L7-59] | ++ (++ indicates a >5- to 10-fold improvement)
DGVKLCERASKTWSGHCGNTKHCDKQCKNWEKAKHGACHKRSGKWKCFCYFNC (Defensin like) [L7-219] | + (+ indicates a 1- to 5-fold improvement in activity compared to a reference defensin protein)
